The values that follow come from patent publication US20250122183A1 (Pfizer Inc., priority 2023, published 2025).

What all share (assay type): biochemical
For experiment [1], the target named is KAT5 Full length enzyme (Homo sapiens (Human), UniProt Q92993). As to the kind of experiment: KAT5 assay (SAMDI-MS acetylation of H4 1-21 peptide). Conditions: Morrison equation fit; replicate number in parentheses; read-out: KAT5 Ki (nM) (replicate number).
For experiment [2], the target named is KAT8 Full length enzyme (Homo sapiens (Human), UniProt Q9H7Z6). In words: KAT8 assay (SAMDI-MS acetylation of H3 1-21 peptide). Particulars: Morrison equation fit; replicate number in parentheses; read-out: KAT8 Ki (nM) (replicate number).
KAT8 Full length enzyme, sequence (Q9H7Z6 whole entry): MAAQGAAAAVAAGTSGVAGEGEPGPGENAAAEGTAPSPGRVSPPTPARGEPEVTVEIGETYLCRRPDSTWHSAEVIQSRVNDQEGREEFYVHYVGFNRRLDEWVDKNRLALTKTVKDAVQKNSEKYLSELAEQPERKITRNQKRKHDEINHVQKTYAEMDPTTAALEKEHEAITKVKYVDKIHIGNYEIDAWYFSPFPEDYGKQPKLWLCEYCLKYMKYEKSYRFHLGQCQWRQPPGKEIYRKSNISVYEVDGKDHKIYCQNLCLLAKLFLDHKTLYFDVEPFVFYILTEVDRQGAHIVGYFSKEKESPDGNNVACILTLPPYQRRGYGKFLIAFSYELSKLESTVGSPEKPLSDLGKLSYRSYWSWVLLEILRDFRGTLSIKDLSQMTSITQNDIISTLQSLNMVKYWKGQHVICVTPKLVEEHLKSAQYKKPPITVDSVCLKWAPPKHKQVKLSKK
Experiment [3] deals with KAT7+BRPF1+EAF6+ING5 4 protein complex (Homo sapiens (Human), UniProt O95251). As to the kind of experiment: KAT7 BRPF1 assay (SAMDI-MS acetylation of H3 1-21 peptide). Conditions: Morrison equation fit; replicate number in parentheses.
Experiment [4] concerns the target KAT6A Full length enzyme (Homo sapiens (Human), UniProt Q92794). As to the kind of experiment: KAT6A assay (SAMDI-MS acetylation of H3 1-21 peptide). Particulars: Morrison equation fit; replicate number in parentheses; read-out: KAT6A Ki (nM) (replicate number).
Experiment [5] concerns the target KAT7+JADE1+EAF6+ING5 4 protein complex (Homo sapiens (Human), UniProt O95251). As to the kind of experiment: KAT7 JADE1 assay (SAMDI-MS acetylation of H3 1-21 peptide). Particulars: Morrison equation fit; replicate number in parentheses; read-out: KAT7 JADE1 Ki (nM) (replicate number).
Experiment [6] concerns the target KAT7+BRPF2+EAF6+ING5 4 protein complex (Homo sapiens (Human), UniProt O95251). In words: KAT7 BRPF2 assay (SAMDI-MS acetylation of H3 1-21 peptide). Conditions: Morrison equation fit; replicate number in parentheses; read-out: KAT7 BRPF2 Ki (nM) (replicate number).

KAT5 Full length enzyme, sequence (Q92993 whole entry): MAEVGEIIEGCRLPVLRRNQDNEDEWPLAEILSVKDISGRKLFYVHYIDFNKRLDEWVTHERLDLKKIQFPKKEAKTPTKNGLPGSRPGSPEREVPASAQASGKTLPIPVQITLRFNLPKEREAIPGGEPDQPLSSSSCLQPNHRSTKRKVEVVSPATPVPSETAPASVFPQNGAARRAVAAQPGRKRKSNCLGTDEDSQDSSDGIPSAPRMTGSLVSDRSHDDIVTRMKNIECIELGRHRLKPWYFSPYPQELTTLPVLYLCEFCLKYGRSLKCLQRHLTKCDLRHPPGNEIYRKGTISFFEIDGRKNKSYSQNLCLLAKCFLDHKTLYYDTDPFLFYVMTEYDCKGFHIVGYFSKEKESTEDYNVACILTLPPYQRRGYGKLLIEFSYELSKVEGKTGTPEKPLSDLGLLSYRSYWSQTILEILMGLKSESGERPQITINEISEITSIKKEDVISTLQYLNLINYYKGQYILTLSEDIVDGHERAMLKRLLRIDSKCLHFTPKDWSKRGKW
KAT6A Full length enzyme, sequence (Q92794 other isoform, or with tags, fused parts or gaps): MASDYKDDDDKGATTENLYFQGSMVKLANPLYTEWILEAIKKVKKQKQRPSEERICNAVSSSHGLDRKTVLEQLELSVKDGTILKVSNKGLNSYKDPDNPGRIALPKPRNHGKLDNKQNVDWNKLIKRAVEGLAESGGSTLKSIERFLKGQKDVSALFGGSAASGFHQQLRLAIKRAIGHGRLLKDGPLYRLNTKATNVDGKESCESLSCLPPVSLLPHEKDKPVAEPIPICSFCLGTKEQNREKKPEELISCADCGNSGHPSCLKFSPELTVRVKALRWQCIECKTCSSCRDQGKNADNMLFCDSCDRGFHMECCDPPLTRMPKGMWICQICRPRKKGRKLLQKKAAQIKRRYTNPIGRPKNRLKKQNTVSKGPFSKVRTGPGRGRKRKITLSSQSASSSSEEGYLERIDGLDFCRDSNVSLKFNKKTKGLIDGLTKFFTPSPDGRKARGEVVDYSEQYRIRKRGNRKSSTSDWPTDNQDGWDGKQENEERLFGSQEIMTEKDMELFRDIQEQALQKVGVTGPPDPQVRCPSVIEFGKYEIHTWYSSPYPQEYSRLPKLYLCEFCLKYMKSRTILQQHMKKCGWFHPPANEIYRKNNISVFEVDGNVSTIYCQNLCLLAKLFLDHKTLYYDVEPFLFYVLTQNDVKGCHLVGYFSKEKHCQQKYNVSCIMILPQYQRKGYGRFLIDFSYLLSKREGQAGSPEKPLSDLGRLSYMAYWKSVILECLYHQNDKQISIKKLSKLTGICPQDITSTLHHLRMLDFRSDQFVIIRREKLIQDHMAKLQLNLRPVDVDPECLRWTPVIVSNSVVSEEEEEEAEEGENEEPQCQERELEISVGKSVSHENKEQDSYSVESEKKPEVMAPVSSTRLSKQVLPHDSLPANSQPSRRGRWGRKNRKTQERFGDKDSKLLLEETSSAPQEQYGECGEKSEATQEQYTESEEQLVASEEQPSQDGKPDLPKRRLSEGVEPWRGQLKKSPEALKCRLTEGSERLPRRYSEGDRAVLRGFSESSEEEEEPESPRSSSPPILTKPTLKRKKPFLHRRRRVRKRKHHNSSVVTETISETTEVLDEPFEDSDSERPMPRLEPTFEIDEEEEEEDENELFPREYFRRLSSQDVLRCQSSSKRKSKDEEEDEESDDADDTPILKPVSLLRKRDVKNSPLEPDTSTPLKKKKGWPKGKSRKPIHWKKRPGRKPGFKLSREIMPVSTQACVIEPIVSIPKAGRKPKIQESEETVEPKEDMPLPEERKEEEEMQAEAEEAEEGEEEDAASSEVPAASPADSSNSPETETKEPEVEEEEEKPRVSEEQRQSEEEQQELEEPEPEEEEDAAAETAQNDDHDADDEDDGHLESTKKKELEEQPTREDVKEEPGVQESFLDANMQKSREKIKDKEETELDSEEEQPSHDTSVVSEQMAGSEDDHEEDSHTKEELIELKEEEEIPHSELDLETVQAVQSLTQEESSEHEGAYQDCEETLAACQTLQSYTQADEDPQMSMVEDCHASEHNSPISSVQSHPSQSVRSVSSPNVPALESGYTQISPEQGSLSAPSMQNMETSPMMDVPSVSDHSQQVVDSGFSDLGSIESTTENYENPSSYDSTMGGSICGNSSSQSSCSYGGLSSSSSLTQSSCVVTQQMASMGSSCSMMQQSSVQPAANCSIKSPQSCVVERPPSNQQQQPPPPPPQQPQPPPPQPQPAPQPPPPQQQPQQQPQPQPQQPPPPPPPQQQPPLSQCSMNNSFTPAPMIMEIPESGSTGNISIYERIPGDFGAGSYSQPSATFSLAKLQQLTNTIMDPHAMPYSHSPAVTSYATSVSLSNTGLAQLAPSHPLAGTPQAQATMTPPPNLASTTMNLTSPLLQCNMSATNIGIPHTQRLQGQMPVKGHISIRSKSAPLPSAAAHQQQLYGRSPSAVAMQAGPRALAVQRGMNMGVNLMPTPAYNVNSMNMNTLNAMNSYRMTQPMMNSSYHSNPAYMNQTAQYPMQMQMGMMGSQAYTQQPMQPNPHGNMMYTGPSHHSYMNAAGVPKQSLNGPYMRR

Regarding `COc1cc2c(NS(=O)(=O)c3c(OC)cccc3OC)noc2cc1Nc1cc[nH]n1` [Example 03, 2,6-Dimethoxy-N-{5-methoxy-6-[(1H-pyrazol-3-yl)amino]-1,2-benzoxazol-3-yl}benzene-1-sulfonamide], the inhibition constant Ki in experiment [1] is 138 nM; in experiment [2], 861 nM; in experiment [3], 40.6 nM; in experiment [4], 0.5 nM; in experiment [5], 105 nM; in experiment [6], 43.6 nM.

`CCOc1cc(C)ccc1S(=O)(=O)Nc1noc2cc(Nc3cc(C(C)C)[nH]n3)c(OC)cc12` [Example 78, 2-ethoxy-N-(5-methoxy-6-{[5-(propan-2-yl)-1H-pyrazol-3-yl]amino}-1,2-benzoxazol-3-yl)-4-methylbenzene-1-sulfonamide]: the inhibition constant (Ki) came to 354 nM in experiment [1]; 8730 nM in experiment [2]; 40.2 nM in experiment [3]; 2.5 nM in experiment [4]; 109 nM in experiment [5]; 54.4 nM in experiment [6].

`COc1cc(Nc2cc3onc(NS(=O)(=O)c4c(OC)cccc4OC)c3cc2OC)n[nH]1` [Example 44, 2,6-dimethoxy-N-{5-methoxy-6-[(5-methoxy-1H-pyrazol-3-yl)amino]-1,2-benzoxazol-3-yl}benzene-1-sulfonamide]: the Ki in experiment [1] is 1000 nM; in experiment [2], over 16300 nM; in experiment [3], 9.8 nM; in experiment [4] it was 3.4 nM; in experiment [5], 48.2 nM; in experiment [6], 16.2 nM.

Turning to `COc1cc2c(NS(=O)(=O)c3c(OC)cccc3OC)noc2cc1Nc1ccn(C)n1` [Example 04, 2,6-Dimethoxy-N-{5-methoxy-6-[(1-methyl-1H-pyrazol-3-yl)amino]-1,2-benzoxazol-3-yl}benzene-1-sulfonamide], the Ki in experiment [1] is 367 nM; in experiment [2], 1230 nM; in experiment [3], 67.2 nM; in experiment [4] it was 0.7 nM; in experiment [5], 251 nM; in experiment [6] it was 57.2 nM.

Consider `COc1cccc(OC)c1S(=O)(=O)Nc1noc2cc(Nc3ncc[nH]3)cc(OC)c12` [Example 15, N-{6-[(1H-imidazol-2-yl)amino]-4-methoxy-1,2-benzoxazol-3-yl}-2,6-dimethoxybenzene-1-sulfonamide], for which the inhibition constant Ki in experiment [1] amounted to 1330 nM; in experiment [2] it was 1320 nM; in experiment [3], 67.8 nM; in experiment [4] it was 1.2 nM; in experiment [5], 256 nM; in experiment [6], 100 nM.

With `COc1cc2c(NS(=O)(=O)c3ccc(C)cc3OC)noc2cc1Nc1cc[nH]n1` [Example 23, 2-methoxy-N-{5-methoxy-6-[(1H-pyrazol-3-yl)amino]-1,2-benzoxazol-3-yl}-4-methylbenzene-1-sulfonamide], the inhibition constant Ki was 418 nM in experiment [1]; 1060 nM in experiment [2]; 36.7 nM in experiment [3]; 0.9 nM in experiment [4]; 212 nM in experiment [5]; 95.2 nM in experiment [6].

Regarding `COc1cc2c(NS(=O)(=O)c3cc(C)ccc3OC)noc2cc1Nc1cc[nH]n1` [Example 24, 2-methoxy-N-{5-methoxy-6-[(1H-pyrazol-3-yl)amino]-1,2-benzoxazol-3-yl}-5-methylbenzene-1-sulfonamide], the Ki in experiment [1] came to 236 nM; in experiment [2], 440 nM; in experiment [3] it was 88.5 nM; in experiment [4], 0.9 nM; in experiment [5] it was 285 nM; in experiment [6], 182 nM.

Take `COc1ccccc1S(=O)(=O)Nc1noc2cc(Nc3cc[nH]n3)cc(OC)c12` [Example 09, 2-methoxy-N-{4-methoxy-6-[(1H-pyrazol-3-yl)amino]-1,2-benzoxazol-3-yl}benzene-1-sulfonamide]: the inhibition constant Ki in experiment [1] worked out at 642 nM; in experiment [2] it was 1190 nM; in experiment [3], 51.8 nM; in experiment [4], 0.8 nM; in experiment [5], 202 nM; in experiment [6], 90.7 nM.

With `CCOc1ccccc1S(=O)(=O)Nc1noc2cc(Nc3cc[nH]n3)c(OC)cc12` [Example 28, 2-ethoxy-N-{5-methoxy-6-[(1H-pyrazol-3-yl)amino]-1,2-benzoxazol-3-yl}benzene-1-sulfonamide], the inhibitory constant (Ki) in experiment [1] turned out to be 630 nM; in experiment [2] it was 3110 nM; in experiment [3], 97.1 nM; in experiment [4], 1.2 nM; in experiment [5], 290 nM; in experiment [6] it was 141 nM.

On to `COc1cc2c(NS(=O)(=O)c3ccc(C)cc3OCC(F)F)noc2cc1Nc1cc[nH]n1` [Example 64, 2-(2,2-difluoroethoxy)-N-{5-methoxy-6-[(1H-pyrazol-3-yl)amino]-1,2-benzoxazol-3-yl}-4-methylbenzene-1-sulfonamide], for which the Ki in experiment [1] is 48.1 nM; in experiment [2], 550 nM; in experiment [3], 146 nM; in experiment [4] it was 0.2 nM; in experiment [5] it was 136 nM; in experiment [6], 144 nM.

For `COc1cc2c(NS(=O)(=O)c3c(OC)cccc3OC)noc2cc1Nc1ncn(C)n1` [Example 35, 2,6-dimethoxy-N-{5-methoxy-6-[(1-methyl-1H-1,2,4-triazol-3-yl)amino]-1,2-benzoxazol-3-yl}benzene-1-sulfonamide], the inhibition constant (Ki) in experiment [1] was 1760 nM; in experiment [2], 9110 nM; in experiment [3] it was 48.3 nM; in experiment [4] it was 3 nM; in experiment [5], 527 nM; in experiment [6], 156 nM.

On to `CCOc1ccccc1S(=O)(=O)Nc1noc2cc(Nc3cc(C(C)C)[nH]n3)c(OC)cc12` [Example 63, 2-ethoxy-N-(5-methoxy-6-{[5-(propan-2-yl)-1H-pyrazol-3-yl]amino}-1,2-benzoxazol-3-yl)benzene-1-sulfonamide], for which the Ki in experiment [1] amounted to 436 nM; in experiment [2], 13000 nM; in experiment [3] it was 54.8 nM; in experiment [4], 10.2 nM; in experiment [5], 203 nM; in experiment [6], 76.2 nM.

For `COc1cc2c(NS(=O)(=O)c3ccccc3OC)noc2cc1Nc1cc(C(C)C)[nH]n1` [Example 65, 2-methoxy-N-(5-methoxy-6-{[5-(propan-2-yl)-1H-pyrazol-3-yl]amino}-1,2-benzoxazol-3-yl)benzene-1-sulfonamide], the inhibition constant Ki in experiment [1] is 1280 nM; in experiment [2], over 13000 nM; in experiment [3] it was 57.4 nM; in experiment [4], 8.6 nM; in experiment [5] it was 206 nM; in experiment [6] it was 85.4 nM.

Take `COc1cc2c(NS(=O)(=O)c3c(OC)cccc3OC)noc2cc1Nc1cc(C2CCNCC2)n[nH]1` [Example 56, 2,6-dimethoxy-N-(5-methoxy-6-{[3-(piperidin-4-yl)-1H-pyrazol-5-yl]amino}-1,2-benzoxazol-3-yl)benzene-1-sulfonamide]: the Ki in experiment [1] came to 22200 nM; in experiment [2], 7220 nM; in experiment [3] it was 157 nM; in experiment [4], 3 nM; in experiment [5] it was 594 nM; in experiment [6], 512 nM.

As a reminder, the Ki is the equilibrium dissociation constant of an inhibitor or competing ligand from its target.
